Our source for the % of control and % binding values is ChEMBL document CHEMBL5465560, “Selectivity Literature for EUbOPEN Chemogenomic Library” (2024).

The target in experiment [1] is T1, Ephrin type-A receptor 6 (Homo sapiens) (UniProt Q9UF33).
T1 sequence (whole entry): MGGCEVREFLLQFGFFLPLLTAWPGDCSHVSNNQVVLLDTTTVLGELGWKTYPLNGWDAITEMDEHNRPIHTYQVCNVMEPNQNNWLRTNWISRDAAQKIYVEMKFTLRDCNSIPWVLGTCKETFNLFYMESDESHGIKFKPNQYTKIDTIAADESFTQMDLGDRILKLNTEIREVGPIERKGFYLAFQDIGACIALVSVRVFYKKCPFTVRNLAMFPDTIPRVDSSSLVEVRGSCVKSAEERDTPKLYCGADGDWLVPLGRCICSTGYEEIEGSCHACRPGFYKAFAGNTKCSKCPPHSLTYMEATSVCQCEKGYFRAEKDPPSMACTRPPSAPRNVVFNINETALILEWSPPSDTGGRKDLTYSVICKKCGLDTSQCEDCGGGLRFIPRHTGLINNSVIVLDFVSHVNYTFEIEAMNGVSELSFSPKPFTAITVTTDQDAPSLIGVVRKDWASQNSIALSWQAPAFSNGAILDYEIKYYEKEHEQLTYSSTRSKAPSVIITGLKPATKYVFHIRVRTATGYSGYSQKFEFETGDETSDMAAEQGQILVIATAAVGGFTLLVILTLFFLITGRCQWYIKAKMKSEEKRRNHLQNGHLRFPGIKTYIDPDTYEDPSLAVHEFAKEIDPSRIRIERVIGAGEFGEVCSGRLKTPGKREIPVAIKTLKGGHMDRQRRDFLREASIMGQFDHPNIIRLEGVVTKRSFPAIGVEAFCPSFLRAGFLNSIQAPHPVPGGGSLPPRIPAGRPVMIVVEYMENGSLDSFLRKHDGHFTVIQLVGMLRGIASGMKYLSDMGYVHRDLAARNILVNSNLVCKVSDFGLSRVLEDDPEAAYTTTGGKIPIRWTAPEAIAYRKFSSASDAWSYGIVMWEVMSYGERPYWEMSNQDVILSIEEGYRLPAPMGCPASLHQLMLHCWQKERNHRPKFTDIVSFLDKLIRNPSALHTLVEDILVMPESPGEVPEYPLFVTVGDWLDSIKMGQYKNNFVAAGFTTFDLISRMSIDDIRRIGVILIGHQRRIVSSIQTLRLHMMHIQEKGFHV
Particulars: at 10 µM.

The subject of experiment [2] is Leucine-rich repeat serine/threonine-protein kinase 2 (Homo sapiens), Q5S007 [G2019S]. In words: (§1) Selectivity interaction (Ambit KINOMEscan and KiNATiv profiling in Jurkat cells) EUB0000090b LRRK2. The experiment is classed as cell-based. Particulars: at 1 µM.
In experiment [3] the target is Leucine-rich repeat serine/threonine-protein kinase 2 (Homo sapiens, UniProt Q5S007). The description is as §1. The experiment is classed as cell-based. Particulars: at 1 µM.
The target of experiment [4] is Mitogen-activated protein kinase kinase kinase 11 (Homo sapiens) (UniProt Q16584). Nature of the experiment: Selectivity interaction (KinomeScan (DiscoverX)) EUB0000092b MAP3K11. As to conditions: at 10 µM.
Experiment [5] addresses Serine/threonine-protein kinase/endoribonuclease IRE1 (Homo sapiens) (UniProt O75460). Nature of the experiment: Selectivity interaction (KinomeScan (DiscoverX)) EUB0000655a ERN1. As to conditions: at 10 µM.
In experiment [6] the target is Activin receptor type-2A (Homo sapiens) (UniProt P27037). In words: Selectivity interaction (KinomeScan (DiscoverX)) EUB0000666a ACVR2A. As to conditions: at 10 µM.
For experiment [7], the target named is Serine/threonine-protein kinase pim-3 (Homo sapiens) (UniProt Q86V86). Nature of the experiment: Selectivity interaction (KinomeScan (DiscoverX)) EUB0000229b PIM3. As to conditions: at 10 µM.
Experiment [8] concerns the target T2, Serine/threonine-protein kinase Nek5 (Homo sapiens) (UniProt Q6P3R8).
T2 sequence (whole entry): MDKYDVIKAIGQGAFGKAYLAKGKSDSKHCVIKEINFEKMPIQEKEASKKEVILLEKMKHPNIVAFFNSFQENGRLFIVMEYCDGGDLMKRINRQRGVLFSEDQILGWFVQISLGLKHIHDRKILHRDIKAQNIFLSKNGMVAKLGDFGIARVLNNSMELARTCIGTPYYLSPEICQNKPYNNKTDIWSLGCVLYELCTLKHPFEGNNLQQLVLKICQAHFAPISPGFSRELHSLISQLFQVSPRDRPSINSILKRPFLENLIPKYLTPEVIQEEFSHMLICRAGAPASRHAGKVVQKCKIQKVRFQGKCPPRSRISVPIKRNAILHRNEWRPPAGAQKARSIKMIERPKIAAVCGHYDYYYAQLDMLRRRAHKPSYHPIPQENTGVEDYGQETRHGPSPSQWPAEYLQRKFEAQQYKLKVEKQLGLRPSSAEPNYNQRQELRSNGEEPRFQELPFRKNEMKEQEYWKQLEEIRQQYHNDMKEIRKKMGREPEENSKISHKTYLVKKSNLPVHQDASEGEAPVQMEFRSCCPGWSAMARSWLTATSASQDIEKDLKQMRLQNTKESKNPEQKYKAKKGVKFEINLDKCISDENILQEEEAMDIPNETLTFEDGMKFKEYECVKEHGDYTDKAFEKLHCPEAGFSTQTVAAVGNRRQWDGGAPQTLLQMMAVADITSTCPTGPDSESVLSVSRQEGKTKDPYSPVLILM
In words: Selectivity interaction (KinomeScan (DiscoverX)) EUB0000618a NEK5. Particulars: at 10 µM.

Experiment [9] addresses T3, Atypical kinase COQ8B, mitochondrial (Homo sapiens) (UniProt Q96D53).
T3 sequence (whole entry): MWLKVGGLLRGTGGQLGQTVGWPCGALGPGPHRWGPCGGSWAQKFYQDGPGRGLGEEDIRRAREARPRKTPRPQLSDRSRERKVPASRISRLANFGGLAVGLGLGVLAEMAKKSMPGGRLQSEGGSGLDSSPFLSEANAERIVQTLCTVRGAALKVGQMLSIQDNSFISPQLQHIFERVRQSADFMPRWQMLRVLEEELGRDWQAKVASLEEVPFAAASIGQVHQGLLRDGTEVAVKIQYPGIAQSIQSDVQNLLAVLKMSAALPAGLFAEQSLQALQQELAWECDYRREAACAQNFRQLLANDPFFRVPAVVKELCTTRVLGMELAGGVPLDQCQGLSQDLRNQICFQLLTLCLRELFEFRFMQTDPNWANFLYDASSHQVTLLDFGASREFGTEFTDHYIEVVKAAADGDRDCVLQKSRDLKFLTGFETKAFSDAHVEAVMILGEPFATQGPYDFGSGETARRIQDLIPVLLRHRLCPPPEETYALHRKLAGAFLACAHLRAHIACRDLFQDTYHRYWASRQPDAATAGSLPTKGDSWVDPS
In words: Selectivity interaction (KinomeScan (DiscoverX)) EUB0000618a ADCK4. As to conditions: at 10 µM.

Sequence of Serine/threonine-protein kinase/endoribonuclease IRE1 (Homo sapiens) (O75460 19-977 limits assumed): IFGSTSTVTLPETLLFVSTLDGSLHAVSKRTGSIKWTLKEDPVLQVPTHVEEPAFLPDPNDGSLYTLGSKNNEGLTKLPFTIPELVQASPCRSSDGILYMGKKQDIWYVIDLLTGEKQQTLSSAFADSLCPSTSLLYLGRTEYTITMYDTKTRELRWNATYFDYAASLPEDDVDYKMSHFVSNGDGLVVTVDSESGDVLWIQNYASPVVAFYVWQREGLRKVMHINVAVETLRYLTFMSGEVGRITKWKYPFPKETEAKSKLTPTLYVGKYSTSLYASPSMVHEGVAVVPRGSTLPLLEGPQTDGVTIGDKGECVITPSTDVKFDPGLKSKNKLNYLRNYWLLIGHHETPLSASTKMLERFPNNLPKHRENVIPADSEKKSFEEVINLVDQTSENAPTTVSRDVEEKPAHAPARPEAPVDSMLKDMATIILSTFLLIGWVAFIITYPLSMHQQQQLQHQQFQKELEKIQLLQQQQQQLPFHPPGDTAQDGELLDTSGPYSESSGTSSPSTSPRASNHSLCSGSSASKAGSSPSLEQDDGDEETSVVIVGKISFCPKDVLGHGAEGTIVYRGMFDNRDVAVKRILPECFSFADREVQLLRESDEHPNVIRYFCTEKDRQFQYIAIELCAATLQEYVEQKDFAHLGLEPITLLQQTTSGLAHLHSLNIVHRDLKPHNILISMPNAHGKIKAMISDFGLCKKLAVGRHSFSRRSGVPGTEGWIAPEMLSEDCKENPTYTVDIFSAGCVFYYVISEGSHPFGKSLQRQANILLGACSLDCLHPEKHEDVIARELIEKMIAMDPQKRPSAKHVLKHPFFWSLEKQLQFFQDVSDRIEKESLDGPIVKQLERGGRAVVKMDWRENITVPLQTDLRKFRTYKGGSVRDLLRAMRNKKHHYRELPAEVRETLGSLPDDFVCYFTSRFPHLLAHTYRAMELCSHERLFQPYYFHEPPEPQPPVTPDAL
Sequence of Mitogen-activated protein kinase kinase kinase 11 (Homo sapiens) (Q16584 whole entry, looked up): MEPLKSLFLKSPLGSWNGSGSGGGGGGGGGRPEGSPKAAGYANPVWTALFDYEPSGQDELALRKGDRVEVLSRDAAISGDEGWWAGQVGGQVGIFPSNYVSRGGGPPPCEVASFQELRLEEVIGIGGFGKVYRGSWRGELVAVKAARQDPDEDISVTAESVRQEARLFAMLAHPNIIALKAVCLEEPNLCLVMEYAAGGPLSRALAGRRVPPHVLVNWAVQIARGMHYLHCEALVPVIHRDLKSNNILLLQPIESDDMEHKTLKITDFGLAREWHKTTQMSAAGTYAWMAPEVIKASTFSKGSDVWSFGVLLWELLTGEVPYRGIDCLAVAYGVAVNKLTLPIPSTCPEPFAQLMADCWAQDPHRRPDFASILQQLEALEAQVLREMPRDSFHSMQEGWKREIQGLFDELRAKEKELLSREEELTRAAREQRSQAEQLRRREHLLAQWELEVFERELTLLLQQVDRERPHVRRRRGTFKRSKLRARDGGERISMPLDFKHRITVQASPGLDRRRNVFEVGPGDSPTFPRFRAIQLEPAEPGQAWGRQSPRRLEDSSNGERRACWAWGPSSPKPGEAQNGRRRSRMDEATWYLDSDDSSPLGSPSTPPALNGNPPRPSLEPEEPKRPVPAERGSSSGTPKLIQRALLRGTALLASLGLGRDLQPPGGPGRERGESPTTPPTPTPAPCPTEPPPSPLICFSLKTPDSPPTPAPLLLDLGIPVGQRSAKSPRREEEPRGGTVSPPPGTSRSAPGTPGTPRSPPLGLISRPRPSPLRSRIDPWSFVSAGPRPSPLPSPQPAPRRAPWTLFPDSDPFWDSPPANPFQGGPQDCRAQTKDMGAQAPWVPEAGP
Sequence of Leucine-rich repeat serine/threonine-protein kinase 2 (Q5S007 whole entry): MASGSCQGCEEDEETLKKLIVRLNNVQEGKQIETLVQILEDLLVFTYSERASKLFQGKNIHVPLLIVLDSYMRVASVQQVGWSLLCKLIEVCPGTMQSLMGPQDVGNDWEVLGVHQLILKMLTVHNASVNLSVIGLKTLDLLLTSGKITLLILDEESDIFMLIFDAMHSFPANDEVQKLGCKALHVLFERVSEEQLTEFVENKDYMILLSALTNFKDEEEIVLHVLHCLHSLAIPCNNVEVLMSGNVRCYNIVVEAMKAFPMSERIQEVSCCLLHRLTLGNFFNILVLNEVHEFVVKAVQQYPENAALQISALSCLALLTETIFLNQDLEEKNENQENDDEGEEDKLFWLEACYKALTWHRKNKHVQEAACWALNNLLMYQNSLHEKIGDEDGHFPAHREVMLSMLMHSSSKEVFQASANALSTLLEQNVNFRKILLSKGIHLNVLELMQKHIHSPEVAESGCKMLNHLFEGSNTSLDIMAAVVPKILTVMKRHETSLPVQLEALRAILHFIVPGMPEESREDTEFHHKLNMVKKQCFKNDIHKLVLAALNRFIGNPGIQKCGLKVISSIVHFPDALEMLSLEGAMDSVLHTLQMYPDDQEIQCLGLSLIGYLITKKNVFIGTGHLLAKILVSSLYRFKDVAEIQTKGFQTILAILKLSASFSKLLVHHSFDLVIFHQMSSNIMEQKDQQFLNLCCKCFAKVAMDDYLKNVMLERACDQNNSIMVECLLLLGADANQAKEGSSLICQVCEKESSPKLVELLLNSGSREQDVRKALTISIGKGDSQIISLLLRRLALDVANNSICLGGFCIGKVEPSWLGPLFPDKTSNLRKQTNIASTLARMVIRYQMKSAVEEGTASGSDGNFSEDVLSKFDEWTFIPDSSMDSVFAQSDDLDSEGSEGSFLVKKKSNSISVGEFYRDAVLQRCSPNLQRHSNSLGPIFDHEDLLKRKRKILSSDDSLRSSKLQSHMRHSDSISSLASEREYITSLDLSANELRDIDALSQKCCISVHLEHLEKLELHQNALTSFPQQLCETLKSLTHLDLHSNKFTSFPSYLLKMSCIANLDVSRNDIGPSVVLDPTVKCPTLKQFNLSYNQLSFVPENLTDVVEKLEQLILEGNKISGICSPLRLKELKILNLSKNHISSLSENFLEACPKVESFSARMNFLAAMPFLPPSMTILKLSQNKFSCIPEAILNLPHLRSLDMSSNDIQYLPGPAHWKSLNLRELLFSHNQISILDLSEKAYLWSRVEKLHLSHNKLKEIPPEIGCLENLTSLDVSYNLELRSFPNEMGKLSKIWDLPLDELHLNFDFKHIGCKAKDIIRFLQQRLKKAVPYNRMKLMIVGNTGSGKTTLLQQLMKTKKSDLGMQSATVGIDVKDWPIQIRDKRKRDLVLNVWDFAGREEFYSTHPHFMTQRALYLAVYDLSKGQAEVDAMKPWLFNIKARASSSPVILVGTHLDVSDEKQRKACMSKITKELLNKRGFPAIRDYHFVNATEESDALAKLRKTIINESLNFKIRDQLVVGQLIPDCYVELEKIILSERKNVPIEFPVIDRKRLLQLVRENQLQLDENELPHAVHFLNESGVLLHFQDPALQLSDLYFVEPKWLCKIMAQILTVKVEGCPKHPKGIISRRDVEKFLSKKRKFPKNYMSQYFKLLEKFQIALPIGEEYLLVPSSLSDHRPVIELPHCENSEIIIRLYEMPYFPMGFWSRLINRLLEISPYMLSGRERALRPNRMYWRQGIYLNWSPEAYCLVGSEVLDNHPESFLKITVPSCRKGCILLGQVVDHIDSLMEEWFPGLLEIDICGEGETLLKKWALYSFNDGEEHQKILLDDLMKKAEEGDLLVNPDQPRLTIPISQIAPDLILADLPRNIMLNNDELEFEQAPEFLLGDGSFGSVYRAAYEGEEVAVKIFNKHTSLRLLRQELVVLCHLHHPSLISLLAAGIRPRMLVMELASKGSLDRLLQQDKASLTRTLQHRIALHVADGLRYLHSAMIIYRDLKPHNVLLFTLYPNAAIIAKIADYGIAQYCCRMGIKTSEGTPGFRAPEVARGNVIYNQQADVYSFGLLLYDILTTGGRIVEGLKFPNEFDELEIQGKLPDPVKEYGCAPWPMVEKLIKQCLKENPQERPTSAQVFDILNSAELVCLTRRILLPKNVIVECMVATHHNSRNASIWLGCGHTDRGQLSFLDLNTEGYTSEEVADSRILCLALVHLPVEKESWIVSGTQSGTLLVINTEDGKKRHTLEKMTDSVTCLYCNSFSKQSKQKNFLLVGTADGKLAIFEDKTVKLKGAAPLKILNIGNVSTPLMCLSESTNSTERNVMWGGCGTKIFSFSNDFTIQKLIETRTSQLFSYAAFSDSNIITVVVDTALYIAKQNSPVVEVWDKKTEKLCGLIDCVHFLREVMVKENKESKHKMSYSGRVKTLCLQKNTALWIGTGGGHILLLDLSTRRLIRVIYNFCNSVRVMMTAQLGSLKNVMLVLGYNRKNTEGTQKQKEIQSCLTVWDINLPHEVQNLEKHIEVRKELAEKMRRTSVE
Sequence of Leucine-rich repeat serine/threonine-protein kinase 2 (Homo sapiens), Q5S007 [G2019S] (Q5S007 whole entry G2019S): as the sequence (Q5S007 whole entry) above, with G2019S counted along it

For the compound `Cc1cc([C@@H](C)Nc2ccccc2C(=O)O)c2nc(N3CCOCC3)cc(=O)n2c1` [AZD-6482], the % of control in [1] is 100%.
On to `CN(C)C/C=C/C(=O)Nc1ccc(C(=O)N2CCCC(Nc3ncc(Cl)c(-c4c[nH]c5ccccc45)n3)C2)cc1` (centres undefined), for which the % of control in experiment [2] was 92%; in experiment [3] it was 84%.
In turn, `CCC(=O)N1CCN(c2ccc(-n3c(=O)ccc4cnc5ccc(-c6cnc7ccccc7c6)cc5c43)cc2C(F)(F)F)CC1` gave a % of control in experiment [4] of 69%.
Take `CN(C)CCOc1ccc(-c2nc(-c3ccncc3)c(-c3ccc4c(c3)CC/C4=N\O)[nH]2)cc1`: in experiment [5], the % of control is 62%.
With `O=C(NOC[C@H](O)CO)c1ccc(F)c(F)c1Nc1ccc(I)cc1F`, in experiment [6], the % of control worked out at 80%.
Consider `COc1cc(N(C)c2ccnc3ccc(C(F)(F)F)cc23)cc(OC)c1OC`, for which the % binding in [7] was determined as 78%.
Turning to `O[C@H]1CC[C@H](Nc2ncc3nc(Nc4c(F)cc(F)cc4F)n([C@H]4CCOC4)c3n2)CC1`, the % of control in experiment [8] was found to be 100%; in experiment [9], 87%.
